Biological target: T1, His tagged PTPN2 (TC45) protein (Homo sapiens, UniProt P17706)
T1 construct: made in house
T1 sequence (P17706 with tags, fused parts or gaps isoform P17706-2): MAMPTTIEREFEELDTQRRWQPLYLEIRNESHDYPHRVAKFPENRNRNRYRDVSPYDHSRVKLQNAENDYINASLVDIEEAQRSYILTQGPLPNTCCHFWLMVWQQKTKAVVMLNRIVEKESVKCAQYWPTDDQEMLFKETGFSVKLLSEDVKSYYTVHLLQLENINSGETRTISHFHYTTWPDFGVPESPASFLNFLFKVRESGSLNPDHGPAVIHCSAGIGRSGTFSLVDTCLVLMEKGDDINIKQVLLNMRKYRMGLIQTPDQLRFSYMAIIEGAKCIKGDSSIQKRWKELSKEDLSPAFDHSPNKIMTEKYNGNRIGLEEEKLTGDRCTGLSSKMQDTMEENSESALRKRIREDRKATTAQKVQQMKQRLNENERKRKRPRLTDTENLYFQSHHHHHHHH
Assay: Mobility shift assay (MSA) for potency of PTPN2 inhibitors
Format: biochemical
Conditions: read-out: PTPN2 MSA IC50
Experimental: Compound activity was determined using in house His tagged PTPN2 (TC45) protein (SEQ ID NO: 1) in an in vitro enzymatic reaction. The enzymatic assay used to determine activity was a mobility shift assay using a LabChip EZ Reader by Caliper Life Sciences. The enzymatic reaction was carried out in assay buffer (50 mM HEPES pH 7.5, 1 mM EGTA, 10 mM EDTA, 0.01% Tween® 20, and 2 mM DTT). The compounds were dispensed on a white 384 well ProxiPlate™ (PerkinElmer Catalog #6008289) plate using the Labcyte Echo at varying concentrations (12 point, 1:3 dilution). The enzyme (at 0.5 nM) was incubated with compound for 10 minutes at room temperature. Then the substrate (phosphorylated insulin receptor probe sequence: ((OG488)-(NH—CH2—CH2—O—CH2—CH2—O—CH2—CO)-T-R-D-I-(PY)-E-T-D-Y-Y-R-K-K-NH2) (SEQ ID NO: 2) was added at […] to the plates and incubated for another 10 minutes at room temperature. Finally, a quench solution (water and 4-bromo-3-(2-oxo-2-propoxyethoxy)-5-(3-{[1-(phenylmethanesulfonyl)piperidin-4-yl]amino}phenyl)thiophene-2-carboxylic acid) was added to the plates, which were then run on the EZ Reader (excitation 488 nm, emission 530 nm) to measure % conversion (the amount of phosphorylated substrate which was de-phosphorylated by PTPN2). […] The % inhibition was then used to calculate the IC50 values.

Compound: N#CCc1ccc2cc(O)c(N3CC(=O)NS3(=O)=O)c(F)c2c1 [Compound 228, [8-fluoro-6-hydroxy-7-(1,1,4-trioxo-1λ^6,2,5-thiadiazolidin-2-yl)naphthalen-2-yl]acetonitrile]
- IC50: 1 to 10 nM

Compound: COCc1ccc2cc(O)c(N3CC(=O)NS3(=O)=O)c(F)c2c1 [Compound 229, 5-[1-fluoro-3-hydroxy-7-(methoxymethyl)naphthalen-2-yl]-1λ^6,2,5-thiadiazolidine-1,1,3-trione]
- IC50: 10 to 100 nM

Compound: CC1(COc2ccc3cc(O)c(N4CC(=O)NS4(=O)=O)c(F)c3c2)COC1 [Compound 230, 5-{1-fluoro-3-hydroxy-7-[(3-methyloxetan-3-yl)methoxy]naphthalen-2-yl}-1λ^6,2,5-thiadiazolidine-1,1,3-trione]
- IC50: 1 to 10 nM

Compound: O=C1CN(c2c(O)c(Br)c3ccc(C4=CCN(S(=O)(=O)C5CC5)C4)cc3c2F)S(=O)(=O)N1 [Compound 231A, 5-{4-bromo-7-[1-(cyclopropanesulfonyl)-2,5-dihydro-1H-pyrrol-3-yl]-1-fluoro-3-hydroxynaphthalen-2-yl}-1λ^6,2,5-thiadiazolidine-1,1,3-trione]
- IC50: 1 to 10 nM

Compound: O=C1CN(c2c(O)c(Br)c3ccc(-c4ccn(S(=O)(=O)C5CC5)c4)cc3c2F)S(=O)(=O)N1 [Compound 231B, 5-{4-bromo-7-[1-(cyclopropanesulfonyl)-1H-pyrrol-3-yl]-1-fluoro-3-hydroxynaphthalen-2-yl}-1λ^6,2,5-thiadiazolidine-1,1,3-trione]
- IC50: 1 to 10 nM

Compound: COc1ccc2cc(O)c(N3CC(=O)NS3(=O)=O)c(F)c2c1Cl [Compound 234, 5-(8-chloro-1-fluoro-3-hydroxy-7-methoxynaphthalen-2-yl)-1λ^6,2,5-thiadiazolidine-1,1,3-trione]
- IC50: 10 to 100 nM

Compound: O=C1CN(c2c(O)cc3ccc(C4CC4)cc3c2F)S(=O)(=O)N1 [Compound 236, 5-(7-cyclopropyl-1-fluoro-3-hydroxynaphthalen-2-yl)-1λ^6,2,5-thiadiazolidine-1,1,3-trione]
- IC50: 1 to 10 nM

Compound: C=C(c1ccc2cc(O)c(N3CC(=O)NS3(=O)=O)c(F)c2c1)c1c(C)c(C)c(C)c(C)c1C [Compound 241, 5-{1-fluoro-3-hydroxy-7-[1-(pentamethylphenyl)ethenyl]naphthalen-2-yl}-1λ^6,2,5-thiadiazolidine-1,1,3-trione]
- IC50: > 100 nM

Compound: O=C1CN(c2c(O)cc3ccc(CC4CCN(CC(F)(F)F)C4)cc3c2F)S(=O)(=O)N1 (stereo not drawn) [Compound 251, 5-(1-fluoro-3-hydroxy-7-{[1-(2,2,2-trifluoroethyl)pyrrolidin-3-yl]methyl}naphthalen-2-yl)-1λ^6,2,5-thiadiazolidine-1,1,3-trione]
- IC50: 1 to 10 nM

Compound: CC(C)CN(C)CCOc1ccc2cc(O)c(N3CC(=O)NS3(=O)=O)c(F)c2c1 [Compound 253, 5-(1-fluoro-3-hydroxy-7-{2-[methyl(2-methylpropyl)amino]ethoxy}naphthalen-2-yl)-1λ^6,2,5-thiadiazolidine-1,1,3-trione]
- IC50: 1 to 10 nM

Compound: O=C1CN(c2c(O)cc3ccc(C4=CCNC4)cc3c2F)S(=O)(=O)N1 [Compound 265, 5-[7-(2,5-dihydro-1H-pyrrol-3-yl)-1-fluoro-3-hydroxynaphthalen-2-yl]-1λ^6,2,5-thiadiazolidine-1,1,3-trione]
- IC50: 1 to 10 nM

Compound: O=C1CN(c2c(O)cc3ccc(-c4cccnc4)cc3c2F)S(=O)(=O)N1 [Compound 266, 5-[1-fluoro-3-hydroxy-7-(pyridin-3-yl)naphthalen-2-yl]-1λ^6,2,5-thiadiazolidine-1,1,3-trione]
- IC50: 1 to 10 nM

Compound: O=C1CN(c2c(O)cc3ccc(CC4CNC4)cc3c2F)S(=O)(=O)N1 [Compound 267, 5-{7-[(azetidin-3-yl)methyl]-1-fluoro-3-hydroxynaphthalen-2-yl}-1λ^6,2,5-thiadiazolidine-1,1,3-trione]
- IC50: 10 to 100 nM

Compound: O=C(CNc1ccc2cc(O)c(N3CC(=O)NS3(=O)=O)c(F)c2c1)NCCC1CC1 [Compound 268, N-(2-cyclopropylethyl)-2-{[8-fluoro-6-hydroxy-7-(1,1,4-trioxo-1λ^6,2,5-thiadiazolidin-2-yl)naphthalen-2-yl]amino}acetamide]
- IC50: 1 to 10 nM

Compound: CNC(=O)CCCOc1ccc2cc(O)c(N3CC(=O)NS3(=O)=O)c(F)c2c1 [Compound 269, 4-{[8-fluoro-6-hydroxy-7-(1,1,4-trioxo-1λ^6,2,5-thiadiazolidin-2-yl)naphthalen-2-yl]oxy}-N-methylbutanamide]
- IC50: 1 to 10 nM

Compound: CCNC(=O)NCCOc1ccc2cc(O)c(N3CC(=O)NS3(=O)=O)c(F)c2c1 [Compound 270, N-ethyl-N′-(2-{[8-fluoro-6-hydroxy-7-(1,1,4-trioxo-1λ^6,2,5-thiadiazolidin-2-yl)naphthalen-2-yl]oxy}ethyl)urea]
- IC50: 1 to 10 nM

Compound: O=C1CN(c2c(O)cc3ccc(C4=CCN(CC(F)(F)F)CC4)cc3c2F)S(=O)(=O)N1 [Compound 275, 5-{1-fluoro-3-hydroxy-7-[1-(2,2,2-trifluoroethyl)-1,2,3,6-tetrahydropyridin-4-yl]naphthalen-2-yl}-1λ^6,2,5-thiadiazolidine-1,1,3-trione]
- IC50: 1 to 10 nM

Compound: O=C(O)CNc1ccc2cc(O)c(N3CC(=O)NS3(=O)=O)c(F)c2c1 [Compound 280, {[8-fluoro-6-hydroxy-7-(1,1,4-trioxo-1λ^6,2,5-thiadiazolidin-2-yl)naphthalen-2-yl]amino}acetic acid]
- IC50: 10 to 100 nM

Compound: CS(=O)(=O)N1CCC(Oc2ccc3cc(O)c(N4CC(=O)NS4(=O)=O)c(F)c3c2)CC1 [Compound 284, 5-(1-fluoro-3-hydroxy-7-{[1-(methanesulfonyl)piperidin-4-yl]oxy}naphthalen-2-yl)-1λ^6,2,5-thiadiazolidine-1,1,3-trione]
- IC50: 1 to 10 nM

Compound: COCCS(=O)(=O)N1CC=C(c2ccc3cc(O)c(N4CC(=O)NS4(=O)=O)c(F)c3c2)C1 [Compound 286, 5-{1-fluoro-3-hydroxy-7-[1-(2-methoxyethanesulfonyl)-2,5-dihydro-1H-pyrrol-3-yl]naphthalen-2-yl}-1λ^6,2,5-thiadiazolidine-1,1,3-trione]
- IC50: < 1 nM

Compound: O=C1CN(c2c(O)cc3ccc(C4=CCN(S(=O)(=O)CCC(F)(F)F)C4)cc3c2F)S(=O)(=O)N1 [Compound 287, 5-{1-fluoro-3-hydroxy-7-[1-(3,3,3-trifluoropropane-1-sulfonyl)-2,5-dihydro-1H-pyrrol-3-yl]naphthalen-2-yl}-1λ^6,2,5-thiadiazolidine-1,1,3-trione]
- IC50: < 1 nM

Compound: O=C1CN(c2c(O)cc3ccc(C4=CCN(S(=O)(=O)CCCC(F)(F)F)C4)cc3c2F)S(=O)(=O)N1 [Compound 290, 5-{1-fluoro-3-hydroxy-7-[1-(4,4,4-trifluorobutane-1-sulfonyl)-2,5-dihydro-1H-pyrrol-3-yl]naphthalen-2-yl}-1λ^6,2,5-thiadiazolidine-1,1,3-trione]
- IC50: < 1 nM

Compound: CCCCS(=O)(=O)N1CC=C(c2ccc3cc(O)c(N4CC(=O)NS4(=O)=O)c(F)c3c2)C1 [Compound 291, 5-{7-[1-(butane-1-sulfonyl)-2,5-dihydro-1H-pyrrol-3-yl]-1-fluoro-3-hydroxynaphthalen-2-yl}-1λ^6,2,5-thiadiazolidine-1,1,3-trione]
- IC50: < 1 nM

Compound: N#CCCCCS(=O)(=O)N1CC=C(c2ccc3cc(O)c(N4CC(=O)NS4(=O)=O)c(F)c3c2)C1 [Compound 293, 5-{3-[8-fluoro-6-hydroxy-7-(1,1,4-trioxo-1λ^6,2,5-thiadiazolidin-2-yl)naphthalen-2-yl]-2,5-dihydro-1H-pyrrole-1-sulfonyl}pentanenitrile]
- IC50: < 1 nM

From patent publication US20210009542A1 (Calico Life Sciences LLC, priority 2018, published 2021)
